From PubChem BioAssay (NCI)
“And” between values parts separate entries of the source, which are not always exact repeats. Identical values can stand only once.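 Values below derive from 48-hour exposures of cells grown in 96-well plates, with endpoints linearly interpolated between the two concentrations bracketing the appropriate inhibition level. At the GI50, growth is halved. At the TGI there is no net growth.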

Assays:
Experiment in all cases: growth of human tumour cells (NCI), 48 h
EKVX NSCLC = tested on: EKVX NSCLC
HS 578T breast = tested on: HS 578T breast
IGROV1 ovarian = tested on: IGROV1 ovarian
K-562 leukemia = tested on: K-562 leukemia
NCI-H460 lung = tested on: NCI-H460 lung
NCI/ADR-RES ovarian = tested on: NCI/ADR-RES ovarian
OVCAR-8 ovarian = tested on: OVCAR-8 ovarian
SK-MEL-2 melanoma = tested on: SK-MEL-2 melanoma
SK-OV-3 ovarian = tested on: SK-OV-3 ovarian
SN12C renal = tested on: SN12C renal

| Compound | GI50 (EKVX NSCLC) | TGI (EKVX NSCLC) | GI50 (HS 578T breast) | TGI (HS 578T breast) | GI50 (IGROV1 ovarian) | TGI (IGROV1 ovarian) | GI50 (K-562 leukemia) | TGI (K-562 leukemia) [µM] | GI50 (NCI-H460 lung) | TGI (NCI-H460 lung) | GI50 (NCI/ADR-RES ovarian) | TGI (NCI/ADR-RES ovarian) [µM] | GI50 (OVCAR-8 ovarian) | TGI (OVCAR-8 ovarian) | GI50 (SK-MEL-2 melanoma) | TGI (SK-MEL-2 melanoma) | GI50 (SK-OV-3 ovarian) | TGI (SK-OV-3 ovarian) [µM] | GI50 (SN12C renal) | TGI (SN12C renal) [µM] |
| --- | --- | --- | --- | --- | --- | --- | --- | --- | --- | --- | --- | --- | --- | --- | --- | --- | --- | --- | --- | --- |
| COC(=O)c1ccc2c(c1)C(=O)c1c-2n(C)c(=O)c2cc(OC)c(OC)cc12 | > 50 µM | > 50 µM | > 50 µM | > 50 µM | 11.8 µM | > 50 µM | > 50 µM | > 50 | > 50 µM | > 50 µM | > 50 µM | > 50 | > 50 µM | > 50 µM | 37.8 µM | > 50 µM | > 50 µM | > 50 | > 50 µM | > 50 |
| O=c1c2c(c3ccccc3n1-c1ccccc1)NC(=S)NC2c1ccc(Cl)cc1 (centres undefined) | 2.91 µM | 94.4 µM | 1.85 µM | > 100 µM | 4.57 µM | 27.2 µM | 4.04 µM | > 100 | 1.16 µM | 6.47 µM | 10.1 µM | > 100 | 4.01 µM | > 100 µM | 3.62 µM | 32.4 µM | 9.15 µM | 65 | 3.83 µM | > 100 |
| C[C@]12CC[C@H]3[C@@H](CCC4=CC(=O)CC[C@@]43C)[C@@H]1CC[C@@H]2C(=O)COS(=O)(=O)c1ccc(Br)cc1 |  | 21.3 µM |  | 73.6 µM |  | 3.28 µM |  | 31.7 |  | 22.2 µM |  | > 100 |  | 14.3 µM |  | 22.3 µM |  | 38.1 |  | 34.3 |
| CNc1cc2nc3cc(NC)c(C)cc3cc2cc1C | 1.04 µM | 8.48 µM | 1.62 µM | 7.6 µM | 0.562 µM | 16.2 µM | 0.486 µM | > 100 | 0.41 µM | 1.66 µM | 1.69 µM | 9.28 | 0.754 µM | 9.83 µM | 6 µM | 26.2 µM | 0.695 µM | 12.8 | 0.573 µM | 10.5 |
| CC1=C(C(=O)Nc2ccc3[nH]ncc3c2)C(c2ccc(Cl)c(Cl)c2)CC(=O)N1 (centres undefined) | > 14.6 µM | > 25 µM | 4.29 µM | > 25 µM | 12.8 µM | > 25 µM | > 25 µM | > 25 | > 25 µM | > 25 µM | > 25 µM | > 25 | > 25 µM | > 25 µM | > 25 µM | > 25 µM | > 25 µM | > 25 | > 25 µM | > 25 |
| Nc1nc2c(nnn2C2OC(CO)C(O)C2O)c(=O)[nH]1 (centres undefined) | 14.1 µM | > 100 µM | 12 µM | > 100 µM | 2.76 µM | > 100 µM | 2.06 µM | > 100 | 1.51 µM | > 40.6 µM | 1.23 µM | > 100 | 1.18 µM | > 100 µM | 0.777 µM | 23.8 µM | 0.33 µM | > 23.9 | 3.25 µM | > 100 |
| CC1(C)CCCC(C)(C2CCC3(C)C2C(O)CC2C4(C)CCC(O)C(C)(C)C4C(O)CC23C)O1 (centres undefined) |  | 32.5 µM |  | 30.8 µM |  | 38.5 µM |  | 25.1 |  | 25.3 µM |  | 37.4 |  | 41.9 µM |  | 28 µM |  | 32 |  | 30.8 |
| Cc1[nH]c(C(=O)Nc2ccccc2OC2CCNCC2)c(Cl)c1Cl | 1.09 µM | 3.86 µM | 0.898 µM | 1.9 µM | 0.856 µM | 1.73 µM | 1.66 µM | 5.26 | 0.984 µM | 1.93 µM | 1.27 µM | 3.57 | 1.07 µM | 2.4 µM | 0.932 µM | 1.91 µM | 8.46 µM | 16.1 | 0.86 µM | 1.59 |
| COC(C(=O)C(O)C(C)O)C1Cc2cc3cc(OC4CC(OC5CC(O)C(O)C(C)O5)C(O)C(C)O4)c(C)c(O)c3c(O)c2C(=O)C1OC1CC(OC2CC(O)C(OC3CC(C)(O)C(O)C(C)O3)C(C)O2)C(O)C(C)O1 (centres undefined) | 0.0188 µg/mL and 0.000265 µg/mL |  | 0.0164 µg/mL | 0.134 µg/mL | 0.0112 µg/mL and 0.00231 µg/mL |  | 0.0112 µg/mL and 0.00232 µg/mL |  | 0.0112 µg/mL and 0.000613 µg/mL |  | 3.87 µg/mL and 0.0809 µg/mL |  | 0.0112 µg/mL and 0.000822 µg/mL |  | 0.0112 µg/mL and 0.0015 µg/mL |  | 0.0163 µg/mL and 0.0045 µg/mL |  | 0.0112 µg/mL and 0.0011 µg/mL |  |
| Cn1c2ccccc2c(=O)c2c(O)cc3c(c21)CC(C1(C)CO1)O3 (centres undefined) |  | 14 µM |  | 5.31 µM |  | 26.9 µM |  | 7.84 |  | 13.6 µM |  | 3.2 |  | 2.51 µM |  | 2.32 µM |  | 24.1 |  | 3.77 |
| C=C1COC(O)(C2OCOC(C3CC(=O)NC(=O)C3)C2O)C1C (centres undefined) | 0.00507 µM | 0.04 µM and 0.266 µM | 0.00428 µM | 0.0265 µM | 0.00383 µM and 0.0166 µM | 0.0442 µM and 0.0773 µM | 0.00241 µM | 0.0411 | 0.0107 µM | 0.18 µM and 0.172 µM |  | 0.163 | 0.00425 µM and 0.0104 µM | 0.0413 µM and 0.0509 µM | 0.00243 µM | 0.00927 µM and 0.0446 µM | 0.00429 µM | 0.052 |  | 0.012 |
